# Several values for one entry are separate records, joined by “and”; a condition that tells them apart may be missing. Equal entries are not always repeated. Inconclusive results and toxic doses are left out.
# Tested on: nude mice, LOX melanoma ip, survival T/C
# Test: NCI In Vivo Anticancer Drug Screen. Data for tumor model Human Amelanotic Melanoma (LOX) (intraperitoneal) in NU/NU BALB/C (nude) mice
# Details: endpoint: median survival time, schedule: Q04DX003 (ip), higher = longer survival
# Method: The antitumor activity of compounds was measured in mice bearing transplantable tumors. Survival or tumor size were measured and the results are expressed as the measurement made in the treated group (T) divided by the measurement made in the vehicle treated control group (C). The tumor model used in this assay is Human Amelanotic Melanoma (LOX) (intraperitoneal) in NU/NU BALB/C (nude) mice
# [1] = dose: 50.0 mg/kg/injection, vehicle: saline with Tween-80
# [2] = dose: 100.0 mg/kg/injection, vehicle: saline with Tween-80
# [3] = dose: 200.0 mg/kg/injection, vehicle: saline with Tween-80
# [4] = dose: 1.25 mg/kg/injection, vehicle: water
compound,measurement,setting,value
NNC(=O)c1ccncc1,T/C,"dose: 18.75 mg/kg/injection, vehicle: saline",110 % of control
same,T/C,"dose: 37.5 mg/kg/injection, vehicle: saline",109 % of control
CC(=O)/C(=C\c1ccc(/C=C(\C(C)=O)C(=O)CCN(C)C)cc1)C(=O)CCN(C)C,T/C,[1],94 % of control
same,T/C,[2],100 % of control
same,T/C,[3],105 % of control
same,T/C,"dose: 400.0 mg/kg/injection, vehicle: saline with Tween-80",107 % of control
same,T/C,"dose: 800.0 mg/kg/injection, vehicle: saline with Tween-80",111 % of control
O=C1c2c(O)ccc(O)c2C(=O)c2c(NCCNCCO)ccc(NCCNCCO)c21,T/C,"dose: 0.45 mg/kg/injection, vehicle: other",168 % of control and 167 % of control
same,T/C,"dose: 0.75 mg/kg/injection, vehicle: other",375 % of control and 187 % of control
same,T/C,"dose: 1.25 mg/kg/injection, vehicle: other",256 % of control and 265 % of control
same,T/C,[4],218 % of control
same,T/C,"dose: 2.0 mg/kg/injection, vehicle: other",187 % of control
same,T/C,"dose: 2.08 mg/kg/injection, vehicle: other",88 % of control
same,T/C,"dose: 2.5 mg/kg/injection, vehicle: water",120 % of control
S=C1CCCCN1,T/C,"dose: 37.5 mg/kg/injection, vehicle: distilled water + Tween-80 + alcohol",98 % of control
same,T/C,"dose: 75.0 mg/kg/injection, vehicle: distilled water + Tween-80 + alcohol",100 % of control
same,T/C,"dose: 150.0 mg/kg/injection, vehicle: distilled water + Tween-80 + alcohol",111 % of control
CCN(CC)CC(C)(C)C(=O)/C=C/c1ccc(/C=C/C(=O)C(C)(C)CN(CC)CC)cc1,T/C,"dose: 7.5 mg/kg/injection, vehicle: saline",103 % of control
same,T/C,"dose: 15.0 mg/kg/injection, vehicle: saline",116 % of control
same,T/C,"dose: 30.0 mg/kg/injection, vehicle: saline",109 % of control
Cc1cccc(OCC(O)CN2CC2)c1 (stereo not given),T/C,"dose: 25.0 mg/kg/injection, vehicle: saline with Tween-80",104 % of control
same,T/C,[1],122 % of control and 99 % of control
same,T/C,[2],121 % of control
same,T/C,[3],122 % of control
CC(C)(C)c1ccc(C(=O)N2CCOC23CCCCC3)cc1,T/C,"dose: 75.0 mg/kg/injection, vehicle: Klucel (hydroxypropylcellulose) (HPC)",98 % of control
same,T/C,"dose: 150.0 mg/kg/injection, vehicle: Klucel (hydroxypropylcellulose) (HPC)",95 % of control
same,T/C,"dose: 300.0 mg/kg/injection, vehicle: Klucel (hydroxypropylcellulose) (HPC)",92 % of control
same,T/C,"dose: 600.0 mg/kg/injection, vehicle: Klucel (hydroxypropylcellulose) (HPC)",107 % of control
same,T/C,"dose: 1200.0 mg/kg/injection, vehicle: Klucel (hydroxypropylcellulose) (HPC)",107 % of control
CC1Oc2cc3c(-c4c(O)cc(O)c5c(O)c6c(cc45)OC(C)C(C)C6=O)c(O)cc(O)c3c(O)c2C(=O)C1C (stereo not given),T/C,"dose: 1.0 mg/kg/injection, vehicle: suspension in saline",124 % of control
same,T/C,"dose: 4.0 mg/kg/injection, vehicle: suspension in saline",152 % of control
N=C(N)SCc1cccc2c(=O)cc(-c3ccccc3)oc12,T/C,"dose: 25.0 mg/kg/injection, vehicle: suspension in saline",101 % of control
same,T/C,"dose: 50.0 mg/kg/injection, vehicle: suspension in saline",111 % of control
same,T/C,"dose: 100.0 mg/kg/injection, vehicle: suspension in saline",118 % of control
same,T/C,"dose: 400.0 mg/kg/injection, vehicle: suspension in saline",124 % of control
COc1cccc2c1[C@H]1CO[C@H]3C4C[C@H](C(=O)O)C([C@@H](C2)N13)N4C (stereo not given in full),T/C,"dose: 0.62 mg/kg/injection, vehicle: water",121 % of control
same,T/C,[4],121 % of control
same,T/C,"dose: 5.0 mg/kg/injection, vehicle: water",196 % of control
same,T/C,"dose: 10.0 mg/kg/injection, vehicle: water",152 % of control
same,T/C,"dose: 20.0 mg/kg/injection, vehicle: water",177 % of control

# From PubChem BioAssay AID280 (DTP/NCI, 2004)
